According to patent EP2020447A1, “Method for identifying compounds modulating adiponectin gene expression” (priority 2007, dated 2009):

How the values were obtained:
[1] = tested on: human adiponectin gene promoter; experiment: Luciferase reporter screening assay in C2C12 cells stably expressing the adiponectin promoter construct; type: cell-based; details: for concentration at which the greatest transactivation of the target promoter was obtained (maximum activity): stable C2C12 adiponectin promoter-luciferase line, commercial activator (positive control), luciferase read 48 hours after stimulation
Description: To determine the luciferase activity, between 50000 and […] cells were seeded in each well and in a P24 plate in duplicate. After approximately 24 hours, the medium was removed from the cells and each well was washed with PBS 1x (because DMEM interferes in the measurement of the reporter gene activity). 100 µl of luciferase developing agent (Bright-GloTM Luciferase Assay system- Promega) were then added to each well. This reagent carries the reporter gene substrate and luminescence is generated as a product of the enzymatic reaction. […] To record the measurement of luciferase activity, the plate was shaken for 30 seconds right after adding the developing reagent and after 2 minutes, the volume was collected and transferred to a 96-well plate (P96), which was read in an illuminometer using the program with a duration of 5 seconds and the arbitrary luminescence units were recorded for each obtained clone or, in other words, for each stable cell line.
For the screening, 30000 cells per well were seeded in white P96 plates because these plates allow amplifying the luminescence signal and improving the reading. The cells were grown in 100 µl of hygromycin-free medium.
The cells were stimulated with the extracts 24 hours after the seeding in the following conditions: • cells to which only complete medium had been added (baseline transcription), • cells to which medium had been added in which the extracts to be assayed are dissolved (vehicle), • cells to which a known commercial activator of the target promoter had been added, thus having a positive control of the transcriptional activation and of the screening protocol and which are useful as a reference when screening those positive extracts increasing the activity of the promoters to be studied, because they provide an activation ratio which is calculated as follows: by dividing the average luminescence signal increase in the presence of the commercial activator by the average luminescence signal provided by the baseline activity of the target promoter in the presence of the vehicle. […]
The luciferase activity directed by the target promoters was developed 48 hours after the stimulation with the extracts, according to the protocol described in example 4, but modified such that once the medium was removed from the cells and they were washed with PBS 1x, 40 µl of luciferase developing reagent were added to each well and the plate was read after 2 minutes.
Luminescence values measured in RLUs (Relative Luciferase Units) obtained in the presence of each of the marine extracts which have been assayed were then plotted against the average luminescence signal obtained in baseline conditions (in the presence of the vehicle). […]

[2] = tested on: C2C12 cells; experiment: Toxicity of the commercial activators for the cells in the screening assay; type: cell-based, Mus musculus

| SMILES | potency in the screening assays (comparison in words) ([1]; comparison of commercial activators of the adiponectin promoter) | concentration at which the greatest transactivation of the target promoter was obtained (maximum activity) [1] | toxicity for the cells (comparison in words) [2] |
| --- | --- | --- | --- |
| O=c1c(-c2ccc(O)cc2)coc2cc(O)ccc12 [daidzein] | more potent than RGZ | 20 µM | less toxic for the cells than Genistein |
| O=c1c(-c2ccc(O)cc2)coc2cc(O)cc(O)c12 [genistein] |  | 20 µM |  |
| CN(CCOc1ccc(CC2SC(=O)NC2=O)cc1)c1ccccn1 (centres unmarked) [rosiglitazone] |  | 20 µM |  |
